The values below come from PMC3199943, “Screening the MayBridge Rule of 3 Fragment Library for Compounds That Interact with the Trypanosoma brucei myo-Inositol-3-Phosphate Synthase and/or Show Trypanocidal Activity” (Molecular Biology International, 2011).

Where two headings read alike, the source gives them in different places.

The target in one experiment is T1, TbINO1 (Trypanosoma brucei brucei, UniProt Q5QQ46).
T1 sequence (Q5QQ46 1-528): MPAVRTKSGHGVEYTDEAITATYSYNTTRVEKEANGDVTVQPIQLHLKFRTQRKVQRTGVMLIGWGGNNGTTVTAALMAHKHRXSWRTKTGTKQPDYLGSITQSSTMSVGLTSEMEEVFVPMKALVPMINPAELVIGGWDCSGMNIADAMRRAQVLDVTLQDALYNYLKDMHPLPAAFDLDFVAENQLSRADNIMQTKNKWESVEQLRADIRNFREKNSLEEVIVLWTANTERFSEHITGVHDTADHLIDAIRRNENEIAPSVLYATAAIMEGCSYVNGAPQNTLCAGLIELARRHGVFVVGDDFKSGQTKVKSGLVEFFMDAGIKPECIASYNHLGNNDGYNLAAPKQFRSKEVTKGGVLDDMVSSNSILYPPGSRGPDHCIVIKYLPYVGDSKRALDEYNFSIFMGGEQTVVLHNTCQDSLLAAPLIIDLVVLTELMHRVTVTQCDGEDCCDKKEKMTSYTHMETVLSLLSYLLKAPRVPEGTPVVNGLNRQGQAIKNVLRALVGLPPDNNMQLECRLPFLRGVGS
The experiment is described as follows: biochemical. Type of experiment: binding.

The next experiment deals with A549 cells. The experiment is described as follows: Cytotoxicity against A549 cells, Alamar Blue. Type of experiment: cell-based. Conditions: Supplementary Table 1, compound 0.5 mM, percentage of controls (n=1); for viability at 500 µM: Homo sapiens, A549, 65 h. A digest of the protocol:
(§1)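 Viability by Alamar Blue (5 h) after ~65 h drug treatment; seeding density 2 × 10^4 cells/well in DMEM supplemented with 10% FCS and 2 mM L-Glutamine.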
(In general: Resazurin is reduced to fluorescent resorufin, in cell work by metabolically active cells.)

Another experiment concerns HeLa cells. The experiment is described as follows: cells. Particulars: for viability at 500 µM: 65 h; for HeLa Cells Alamar Blue: Supplementary Table 1, compound 0.5 mM, percentage of controls, mean ± SD (n=3) or SE (n=2). The procedure, abridged:
as §1

The mark [1] stands for this setting: read-out: Tb Ino1 Tm Shift [˚C].
Where [2] appears, read: Homo sapiens, HeLa, read-out: HeLa Cells Alamar Blue.
Setting [3] is: Homo sapiens, HeLa, read-out: HeLa Cells Alamar Blue (% survival).
Setting [4] is: Supplementary Table 1, compound 1mM, mean ± SD from Boltzman curve fitting.
The mark [5] stands for this setting: Supplementary Table 1, compound 1mM, mean ± SD from Boltzman curve fitting, read-out: Tb Ino1 Tm Shift [˚C].

With `Cc1ccc2cc(C(=O)O)ccc2n1` [compound 510, 2‐methyl‐6‐quinolinecarboxylic acid], on TbINO1 (setting [1]), the ΔTm at 1000 µM was 0.12 ± 0.08 °C. Further, the values for the viability at 500 µM in the experiment with A549 cells and with HeLa cells (setting [2]) were 126% and 117 ± 10.8%, respectively.
The corresponding values for `O=C(O)c1cccc(-n2cccc2)c1` [compound 511, 3‐(1H‐pyrrol‐1‐yl)benzoic acid] are 0.6 ± 0.08 °C, 73% and 102 ± 12.3%.
In the case of `O=C(O)c1ccccc1-n1cccc1` [compound 513, 2-(1H-pyrrol-1-yl)benzoic acid], the ΔTm at 1000 µM at TbINO1 (compound 1 mM, mean ± SD (n = 3), read-out: TbIno1 Tm shift [°C]) was 3.14 ± 0.09 °C. Further, the viability at 500 µM with A549 cells turned out to be 64.4%; in the experiment on HeLa cells (setting [2]), 98.5 ± 6.5%; with HeLa cells (setting [3]) it was 98.5 ± 6.5%.
Consider `Nc1ccc2oc3c(c2c1)CCCC3` [compound 516, 6,7,8,9‐tetrahydrodibenzo[b,d]furan‐2‐amine], for which the “Tb Ino1 Tm Shift [˚C]” value at TbINO1 (setting [4]) was 0.2 ± 0.07 °C. Also, the “A549 Cells Alamar Blue” value in the experiment on A549 cells was 68.2 percentage of controls. Besides, in the experiment on HeLa cells, the “HeLa Cells Alamar Blue” value is recorded as 108 ± 5.2 percentage of controls.
As to `N#Cc1ncccc1N1CCCCC1` [compound 517, 3‐piperidin‐1‐ylpyridine‐2‐carbonitrile], on TbINO1 (setting [1]), the ΔTm at 1000 µM worked out at 0.16 ± 0.07 °C. Moreover, the viability at 500 µM in the experiment with A549 cells was 54.7%; in the experiment with HeLa cells (setting [2]), 51.2 ± 17.9%.
As for `O=C(O)c1ccccc1-c1ccco1` [compound 520, 2-(2-furyl)benzoic acid], the ΔTm at 1000 µM at TbINO1 (read-out: TbIno1 Tm shift [°C]) was 4.29 ± 0.07 °C. Moreover, the viability at 500 µM in the experiment on A549 cells is 124%; in the experiment on HeLa cells (setting [2]), 73 ± 11.5%; with HeLa cells (setting [3]), 73 ± 11.5%. In the experiment on HeLa cells (Homo sapiens, HeLa, read-out: HeLa ED50), the CC50 is > 20 mM.
As to `Cc1oc(-c2ccccc2)cc1CO` [compound 521, (2‐methyl‐5‐phenyl‐3‐furyl)methanol], the ΔTm at 1000 µM at TbINO1 (setting [1]) worked out at 1.27 ± 0.07 °C. For the same compound, the figures for the viability at 500 µM with A549 cells and with HeLa cells (setting [2]) were 57.1% and 41.5 ± 15%, respectively.
Turning to `Cc1cc(CO)c(-c2ccccc2)o1` [compound 522, (5-methyl-2-phenyl-3-furyl)methanol], the ΔTm at 1000 µM on TbINO1 (read-out: TbIno1 Tm shift [°C]) stood at 1.61 ± 0.06 °C. In addition, the viability at 500 µM in the experiment on A549 cells is 27.1%; with HeLa cells (setting [2]), 24.3 ± 17.4%; in the experiment on HeLa cells (setting [3]), 24.3 ± 17.4%.
Turning to `COC(=O)c1ccc(F)cc1Cl` [compound 531, methyl 2‐chloro‐4‐fluorobenzoate], the ΔTm at 1000 µM on TbINO1 (setting [1]) is 0.25 ± 0.07 °C. For the same compound, the values for the viability at 500 µM in the experiment with A549 cells and in the experiment on HeLa cells (setting [2]) were 75.7% and 84 ± 11.8%, respectively.
The corresponding values for `NC(=O)c1ccccc1C(F)(F)F` [compound 532, 2‐(trifluoromethyl)benzamide] are 0.43 ± 0.07 °C, 59.4% and 88.3 ± 6.5%.
With `O=C(O)CCc1c[nH]c2ccccc12` [compound 533, 3‐(1H‐indol‐3‐yl)propanoic acid], the ΔTm at 1000 µM at TbINO1 (setting [1]) is 0.73 ± 0.07 °C. Besides, the viability at 500 µM with A549 cells stood at 67.2%; with HeLa cells (setting [2]), 94.9 ± 6%.
Turning to `CC(=O)Nc1ccc2c(c1)CCC2=O` [compound 535, N1‐(1‐oxo‐2,3‐dihydro‐1H‐inden‐5‐yl)acetamide], the “Tb Ino1 Tm Shift [˚C]” value at TbINO1 (setting [4]) was 0.21 ± 0.07 °C. The “A549 Cells Alamar Blue” value with A549 cells is listed as 76.5 percentage of controls. Besides, in the experiment on HeLa cells, the “HeLa Cells Alamar Blue” value was 87.3 ± 4.6 percentage of controls.
On to `Cc1[nH]c2ccc(C(=O)O)cc2c1C` [compound 537, 2,3‐dimethyl‐1H‐indole‐5‐carboxylic acid], for which the ΔTm at 1000 µM at TbINO1 (setting [1]) is 0.7 ± 0.08 °C. In addition, the viability at 500 µM was 74.5% in the experiment on A549 cells and 89.3 ± 2.4% in the experiment with HeLa cells (setting [2]).
Turning to `CC(=O)Oc1ccc(C)c2c1CCC2` [compound 541, 7‐methyl‐2,3‐dihydro‐1H‐inden‐4‐yl acetate], the “Tb Ino1 Tm Shift [˚C]” value on TbINO1 (setting [4]) was 0.01 ± 0.07 °C. The “A549 Cells Alamar Blue” value with A549 cells was 93.1 percentage of controls. Also, the “HeLa Cells Alamar Blue” value in the experiment with HeLa cells was 79.8 ± 6.6 percentage of controls.
Regarding `OCc1ccc(-c2cccs2)cc1` [compound 544, (4‐thien‐2‐ylphenyl)methanol], the ΔTm at 1000 µM on TbINO1 (setting [1]) came to 0.16 ± 0.08 °C. Moreover, the viability at 500 µM came to 80% with A549 cells and 74.7 ± 10.2% in the experiment on HeLa cells (setting [2]).
The corresponding values for `Cc1nc(-c2ccc(N)cc2)cs1` [compound 547, 4‐(2‐methyl‐1,3‐thiazol‐4‐yl)phenylamine] are 0.12 ± 0.07 °C, 63.2% and 74.3 ± 11%.
Regarding `NCc1cccc(CN2CCCC2)c1` [compound 550, [3‐(1‐pyrrolidinylmethyl)phenyl]methanamine], the “Tb Ino1 Tm Shift [˚C]” value at TbINO1 (setting [4]) turned out to be 0.03 ± 0.07 °C. In addition, the “A549 Cells Alamar Blue” value with A549 cells is listed as 108.7 percentage of controls. In the experiment on HeLa cells, the “HeLa Cells Alamar Blue” value is 47.8 ± 11.7 percentage of controls.
Taken in the same sequence, the figures for `CN1C2CCC1CC(=NO)C2.Cl` [compound 552, 8‐methyl‐8‐azabicyclo[3.2.1]octan‐3‐one oxime hydrochloride] were 0 ± 0.09 °C, 105.3 percentage of controls and 103.5 ± 9.7 percentage of controls.
Take `O=C(O)c1cnccc1C(F)(F)F` [compound 553, 4‐(trifluoromethyl)nicotinic acid]: the ΔTm at 1000 µM at TbINO1 (setting [1]) was determined as 0.28 ± 0.07 °C. Moreover, the viability at 500 µM came out at 103% in the experiment on A549 cells and 102 ± 12.4% in the experiment on HeLa cells (setting [2]).
Consider `CN(N)c1cc(C(F)(F)F)ccn1` [compound 554, 2‐(1‐methylhydrazino)‐4‐(trifluoromethyl)pyridine], for which the “Tb Ino1 Tm Shift [˚C]” value on TbINO1 (setting [4]) stood at 0.15 ± 0.08 °C. Besides, the “A549 Cells Alamar Blue” value with A549 cells is listed as 96.1 percentage of controls. For the same compound, the “HeLa Cells Alamar Blue” value in the experiment on HeLa cells was 95.6 ± 16.7 percentage of controls.
As for `O=C(O)c1cc2ccccc2cn1` [compound 555, isoquinoline‐3‐carboxylic acid hydrate], on TbINO1 (setting [5]), the ΔTm at 1000 µM was 0.5 ± 0.09 °C. The figures for the viability at 500 µM with A549 cells and with HeLa cells (setting [2]) were 100% and 92.1 ± 10.1%, respectively.
Take `OCc1ccc(-c2ccccn2)s1` [compound 556, [5‐(2‐pyridinyl)‐2‐thienyl]methanol]: the ΔTm at 1000 µM at TbINO1 (setting [1]) is 0.19 ± 0.08 °C. Besides, the values for the viability at 500 µM in the experiment with A549 cells and with HeLa cells (setting [2]) were 93.9% and 70.2 ± 11%, respectively.
Taken in the same sequence, the figures for `NC(=S)C1=Cc2ccccc2OC1` [compound 558, 2H‐chromene‐3‐carbothioamide] were 0.05 ± 0.09 °C, 98.1% and 80.8 ± 8.8%.
As for `OCc1ccc(CN2CCCC2)cc1` [compound 559, [4‐(pyrrolidin‐1‐ylmethyl)phenyl]methanol], the “Tb Ino1 Tm Shift [˚C]” value at TbINO1 (setting [4]) amounted to 0.05 ± 0.08 °C. Also, the “A549 Cells Alamar Blue” value in the experiment on A549 cells is reported as 110 percentage of controls. Also, in the experiment on HeLa cells, the “HeLa Cells Alamar Blue” value was 91.7 ± 15.8 percentage of controls.
In the case of `CN1CCN(c2ccccc2N)CC1` [compound 561, 2‐(4‐methylpiperazin‐1‐yl)aniline], at TbINO1 (setting [5]), the ΔTm at 1000 µM was determined as 0.46 ± 0.07 °C. Further, the viability at 500 µM with A549 cells came out at 101%; in the experiment on HeLa cells (setting [2]) it was 74.3 ± 11.7%.
Turning to `OCc1ccc(OC(F)(F)F)cc1` [compound 563, [4‐(trifluoromethoxy)phenyl]methanol], at TbINO1 (setting [1]), the ΔTm at 1000 µM came out at 0.01 ± 0.07 °C. The viability at 500 µM stood at 92.9% in the experiment with A549 cells and 94.5 ± 8.3% in the experiment with HeLa cells (setting [2]).
In the case of `CC1(C)Cc2cccc(C(=O)O)c2O1` [compound 564, 2,2‐dimethyl‐2,3‐dihydro‐1‐benzofuran‐7‐carboxylic acid], on TbINO1 (setting [4]), the “Tb Ino1 Tm Shift [˚C]” value is 0.35 ± 0.07 °C. The “A549 Cells Alamar Blue” value in the experiment with A549 cells is listed as 101.2 percentage of controls. In the experiment on HeLa cells, the “HeLa Cells Alamar Blue” value is given as 91.1 ± 19 percentage of controls.
Take `OCc1csc(-c2cccnc2)n1` [compound 566, (2‐pyridin‐3‐yl‐1,3‐thiazol‐4‐yl)methanol]: the ΔTm at 1000 µM at TbINO1 (setting [1]) amounted to 0.29 ± 0.07 °C. The viability at 500 µM in the experiment on A549 cells was found to be 104%; in the experiment on HeLa cells (setting [2]), 88.4 ± 18.2%.
The corresponding values for `Nc1ccc(CN2CCOCC2)cc1` [compound 567, 4‐(morpholinomethyl)aniline] are 0.61 ± 0.05 °C, 103% and 90.1 ± 15.9%.
Taken in the same sequence, the figures for `OCc1ccnc(N2CCCCC2)c1` [compound 568, (2‐piperidinopyrid‐4‐yl)methanol] were 0.03 ± 0.07 °C, 103% and 94.5 ± 18.7%.
The corresponding values for `Nc1ccccc1CN1CCOCC1` [compound 570, 2‐(morpholin‐4‐ylmethyl)aniline] are 0.35 ± 0.05 °C, 104% and 93.2 ± 17.1%.
Regarding `NCc1ccccc1N1CCOCC1` [compound 571, 2‐morpholinobenzylamine], the ΔTm at 1000 µM on TbINO1 (setting [1]) is 0.06 ± 0.07 °C. In addition, the viability at 500 µM in the experiment with A549 cells was 70.9%; in the experiment with HeLa cells (setting [2]), 95 ± 17.5%.
